The values that follow come from US20120252784A1, “2,3,4-BENZOTHIADIAZEPINE-2,2-DIOXIDE DERIVATIVES” (priority 2009, published 2012).

In this test the test system is taurine. The test is described as follows: Changes in amino acid neurotransmitter levels in the cortical area of male rats (HPLC, electrochemical detection). The following applies: male SPDR rats, intraperitoneal, 0.4% aqueous methylcellulose suspension, decapitated 30 minutes after administration, compared to vehicle control group. It is filed as in vivo, rat. On the procedure: The in vivo biological effectiveness of the compounds of the present invention on the central nervous system was examined by the following experimental model.
Changes in Amino Acid Neurotransmitter Levels in the Cortical Area of Male Rats
Male SPDR rats weighing 200-250 g, were used in the experiments. Changes in the concentration of amino acid neurotransmitters were measured from cortical areas by high-performance liquid chromatography (HPLC) and electrochemical detection.
The investigations were carried out with two experimental groups wherein each group contained 8 animals. One group was administered intraperitoneally by vehicle only (control group). The other group was administered intraperitoneally by the compound of the Example 15, suspended in vehicle. The dose of administration was in the form of 0.4% aqueous methylcellulose suspension.
The animals were decapitated 30 minutes after the administration, brains have been removed and required brain regions were dissected. The tissues were stored at −70° C.
The tissues were homogenized in ice-cold 0.1 M perchlorate in 500 volume excess. […]
The tissue concentrations of the amino acids were measured by standard solutions containing amino acids with known concentration.

Take `CN1N=C(c2ccc(F)cc2)c2cc(Cl)ccc2CS1(=O)=O` [Example 16, 7-Chloro-5-(4-fluoro-phenyl)-3-methyl-1,3-dihydro-2̂,4-benzothiadiazepin-2,2-dioxide]: the “concentrations of the amino acid taurine in the frontal cortex” value is “significantly increased”.
